“Also recorded” adds a separate entry of the source.
Experiments:
[1] = system: thioglycollate-induced cellular recruitment into the peritoneal cavity; assay: Thioglycollate-induced peritoneal cellular recruitment; format: in vivo, C3H/Hen mice; settings: thioglycollate i.p.; compound i.p. 30 min before and 24 h later; cells counted at 48 h (Figure 4C, D)
Description: CCL5-induced peritoneal recruitment was performed as described (Johnson et al., [2004]). Thioglycollate-induced cellular recruitment was mediated by the administration of 40 mL/kg of 3% thioglycollate i.p. in 7- to 8-week-old female C3H/Hen mice (JANVIER). Sham mice were injected with 40 mL/kg of NaCl (0.9%, LPS free). Saline (vehicle, control group) or Maltohexaose Sulfate at doses ranging from 1 to 0.01 mg/kg diluted in a volume ratio of 10 mL/kg and were administered i.p. 30 min before the thioglycollate stimulus, and 24 h later. An additional group of mice was injected with a single dose of 3 mg/kg dexamethasone 1 h before challenge as a reference control. Mice were sacrificed 48 h post-thioglycollate injection, the peritoneal cavity was washed twice with 5 mL of […] EDTA solution in PDB, pH 7.4. The peritoneal lavage fluid was centrifuged and resuspended in 1 mL of the solution and recruited cells were counted with a cell counter (Beckman-Coulter, ACT5Diff AD32097).
Figure 4 Inhibition of peritoneal cellular recruitment. Cellular recruitment into the peritoneal cavity was induced by CCL5 (A) and (B) and inhibited by different doses of CCL5 binders administered 30 min prior to the CCL5 administration. […]

[2] = system: leukocyte recruitment into the synovial (knee) cavity; assay: Antigen-induced arthritis (AIA) model, mBSA; format: in vivo, mice; settings: 50 μg s.c. immediately after mBSA; cells counted at 24 h
Description: Induction of disease was performed by injection of 10 μg methylated bovine serum albumin (mBSA) as a 10 μL injection into the synovial cavity. Test compounds, at a total dose of 50 μg were injected in a total volume of 200 μL subcutaneously immediately after mBSA administration. Group sizes were 4–6 animals. Total leukocytes (A), neutrophils (B), and mononuclear cells (C) in the synovial cavity were enumerated 24 h after mBSA injection (Sachs et al., [2011]).
Figure 6 Inhibition of antigen induced arthritis. An injection of mBSA into the synovial cavity was used to induce disease. 50 μg of the inhibitors were administered s.c. immediately after the mBSA injection, and the cells in the synovial cavity were enumerated 24 h later. (A) Total cells; (B) […]; (C) mononuclear cells. ^*P < 0.05.

[3] = system: citrated plasma from healthy human blood donors; assay: Anti-coagulation assay: Activated Partial Thromboplastin Time (APTT)
Description: Activated Partial Thromboplastin Time (APTT) assays were performed by GlycoMar. 10 mg/ml stock solutions of NisS, StachS, and MHxS, were prepared using dH2O and stored at −20°C until use. Samples were tested at 1 mg/ml. All further dilutions were in dH2O. Prior to each assay, a calibration curve of heparin ranging from 0 to 10 IU/ml was prepared using 5th International Standard Heparin. (GlycoMar ID:92, batch 97/578, Expiry 21SEP10). Fresh human blood from healthy human blood donors was collected into S-Monovette Coagulation tubes from Sarstedt. Nine parts of freshly drawn venous blood were collected into one part trisodium citrate (0.106 M). Plasma was obtained by centrifugation at 1500 × g for 10 min. Each of the carbohydrate samples was diluted and tested at 1 mg/ml in the first instance. MHxS was subsequently tested at 0.1 mg/ml to be within the time frame of the standard curve. The APTT assay was run on an ACL 9000 Coagulation Analyzer. The coagulation time of HemosIL Normal Control (cat no. 0020003110) was checked. Samples, standards and controls were mixed 1:10 with citrated plasma in a test tube, loaded into the ACL 9000 carousel and analyzed using the extended APTT run program.

[4] = system: paw thickness after SRBC challenge; assay: Delayed-type hypersensitivity (DTH) model, SRBC; format: in vivo, BALB/c mice
Description: Female BALB/c mice were immunized with 2 × 10^6 sheep red blood cells (SRBC) by subcutaneous route (s.c.) at the base of the tail. Five days later mice were challenged with an s.c. injection of 2 × 10^6 SRBC into the softpaw of the left hindpaw. The paw thickness was measured 21 h later and the difference calculated based on values obtained before challenge. MHxS, NisS, and StachS were injected s.c. at a dose of 10 mg/kg, 30 min before and 8 h after challenge. Vehicle was 0.02% BSA diluted in PBS. The reference compound, dexamethasone, was diluted in saline and administered by oral gavage 30 min before challenge. Group sizes were 6 for sham and 8 for all other groups.
Figure 5 Inhibition of delayed-type hypersensitivity. Immunization was performed by s.c. administration of SRBC, followed by a challenge in the hindpaw 5 days later. The persulfated oligosaccharides (10 mg/kg) were administered 30 min prior and 8 h after the challenge. Dexamethasone was used as a positive control, and paw thickness was measured 21 h following the challenge. The statistical differences vs. the control group (mice challenged with SRBC and treated with vehicle for the compounds 0.02% BSA diluted in PBS) are shown whenever present and indicated by ^*P <0.05>; ^***P < 0.001. TEXT PRINTED IN THE PICTURE: dexamethasone: 47% *** | MHxS: 39% *** | NisS: 20% * | StachS: 41% ***

CCL5 binding to heparin = biological target: T1, CCL5 binding to heparin (Homo sapiens, UniProt P13501); assay: Immobilized heparin competition binding assay ([125I]-CCL5 on heparin-Sepharose beads); settings: [125I]-CCL5 0.05 nM, 4 h, read-out: IC50 for the inhibition of CCL5 binding to heparin
T1 sequence (P13501 24-91): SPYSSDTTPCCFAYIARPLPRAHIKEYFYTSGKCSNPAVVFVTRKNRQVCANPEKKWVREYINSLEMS
Description: Competition experiments were performed as described elsewhere (Severin et al., [2010]). Briefly, heparin-Sepharose beads (Sepharose beads or binding buffer as a background control) and increasing amounts of antagonist were added to each well of a 96 well filter plate. [^125I]-CCL5, was added last, to reach a final concentration of 0.05 nM. The plates were incubated on a shaker at room temperature for 4 h. Each experiment was performed in triplicate, and the results are given as the mean of the three assays.

[5] = system: CCL5-induced cellular recruitment into the peritoneal cavity; assay: CCL5-induced peritoneal cellular recruitment; format: in vivo, mouse; settings: CCL5 binders administered 30 min prior to CCL5 (Figure 4A, B)
CCR1 (Homo sapiens) = biological target: T2, CCR1 (Homo sapiens); assay: Equilibrium competition receptor binding assay (SPA), [125I]-CCL5 on CHO/CCR1 membranes; settings: [125I]-CCL5 0.1 nM, CHO/CCR1 membranes, SPA; read-out: IC50 for the inhibition of CCL5 binding to CCR1
T2 construct: expressed in transfected cells; host or cells: CHO
Description: (§1) The assays were carried out on membranes from CHO transfectants expressing CCR1 or CCR5, as described previously (Severin et al., [2010]). Briefly, serial dilutions of the compounds were prepared in binding buffer (50 mM TrisHCl, pH 7.2, containing 1 mM CaCl2, 5 mM MgCl2, and 0.5% BSA). Equal volumes of membrane preparation at 80 μg/ml and scintillation proximity assay (SPA) beads were mixed before adding them to a 96 well filter plate, giving a final membrane concentration in the assay of 20 μg/ml. ^125I labeled chemokines were dissolved in binding buffer at a concentration of 0.4 nM. The assay was started by the addition of 25 μL [^125I]-CCL5 to give a concentration of 0.1 nM, in a final assay volume of 100 μL. The plates were incubated for 4 h. Radioactivity was counted with a beta counter for 1 min/well and the data analyzed using Graphpad Prism software. The radioligand was stored at −20°C and was used until the cpm of bound chemokine was ≥ 300 cpm.

CCR1 [6] = biological target: T3, CCR1 (Homo sapiens, UniProt P13501); assay: as above; settings: relative to Molecule 1
T3 construct: expressed in transfected cells; host or cells: CHO
T3 sequence (P13501 24-91): T1 sequence (P13501 24-91)
Description: as §1

CCR1 [7] = biological target: T4, CCR1 (Homo sapiens, UniProt P32246); assay: Equilibrium competition receptor binding assay with CCL3 as the ligand, CCR1; settings: data not shown
T4 construct: expressed in transfected cells; host or cells: CHO
T4 sequence (P32246 1-355): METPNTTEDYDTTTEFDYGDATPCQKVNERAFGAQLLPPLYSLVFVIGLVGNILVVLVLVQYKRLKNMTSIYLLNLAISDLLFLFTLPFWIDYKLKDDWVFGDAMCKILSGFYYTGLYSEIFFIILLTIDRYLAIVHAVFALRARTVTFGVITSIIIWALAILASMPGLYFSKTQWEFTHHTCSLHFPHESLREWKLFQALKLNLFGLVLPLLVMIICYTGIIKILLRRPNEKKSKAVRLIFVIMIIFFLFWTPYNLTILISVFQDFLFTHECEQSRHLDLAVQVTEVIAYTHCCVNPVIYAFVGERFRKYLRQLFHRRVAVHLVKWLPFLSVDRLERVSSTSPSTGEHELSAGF
Description: as §1, with “The assay was started by the addition of 25 μL [^125I]-CCL5 to give a concentration of 0.1 nM, in a final assay volume of 100 μL.” left out
(§2) A study of the relative affinity of Molecule 1 toward CCL5 and heparin molecules was first evaluated by competition experiments in which CCL5, immobilized on heparin beads, was competed off the beads by increasing concentrations of Molecule 1. […] Since the principal GAG binding motif of CCL5, the BBXB motif on the 40s loop, plays a role in binding to CCR1, we determined the capacity of Molecule 1 to inhibit the binding of the chemokine CCL5 to its receptors CCR1 and CCR5 using equilibrium competition binding with a SPA-based assay.

CCR5 [8] = biological target: T5, CCR5 (Homo sapiens, UniProt P51681); assay: Equilibrium competition receptor binding assay with CCL3 as the ligand, CCR5; settings: data not shown
T5 construct: expressed in transfected cells; host or cells: CHO
Description: as §1, with “The assay was started by the addition of 25 μL [^125I]-CCL5 to give a concentration of 0.1 nM, in a final assay volume of 100 μL.” left out
as §2

CCR5 [9] = biological target: T6, CCR5 (Homo sapiens, UniProt P13501); assay: Equilibrium competition receptor binding assay (SPA), [125I]-CCL5 on CHO/CCR5 membranes; settings: SPA-based equilibrium competition binding
T6 construct: expressed in transfected cells; host or cells: CHO
T6 sequence (P13501 24-91): T1 sequence (P13501 24-91)
Description: Briefly, serial dilutions of the compounds were prepared in binding buffer (50 mM TrisHCl, pH 7.2, containing 1 mM CaCl2, 5 mM MgCl2, and 0.5% BSA). […] The plates were incubated for 4 h. Radioactivity was counted with a beta counter for 1 min/well and the data analyzed using Graphpad Prism software. The radioligand was stored at −20°C and was used until the cpm of bound chemokine was ≥ 300 cpm.

CCL5 = biological target: T7, CCL5 (Homo sapiens, UniProt P13501); assay: NMR-based CCL5 binding, Kd from 15N-HSQC titration
T7 construct: made in house
T7 sequence (P13501 24-91): T1 sequence (P13501 24-91)
Description: These molecules were charged, and contained multiple acid groups, such as carboxylates and sulfonates. In addition, many of the molecules were aromatic, to provide some hydrophobicity. The library was pooled into sets containing five compounds and these pools mixed at 200 μM, with an equal concentration of CCL5 at 30°C, and a heteronuclear single quantum coherence (HSQC) spectrum recorded immediately. For pools that induced significant change in the protein chemical shifts, a second round of screening was performed in which each of the five compounds was added individually to the protein solution. […] Dissociation constants were obtained by fitting the recorded chemical shift as a function of increasing ligand concentrations with: (1) δobs=δf+LbΔb −f in which δobs is the observed chemical shift at each point of the titration curve, δf is the chemical shift of the free protein and Δb − f is the difference in chemical shift between free and fully complexed protein.

T5 sequence (P51681 whole entry, species assumed): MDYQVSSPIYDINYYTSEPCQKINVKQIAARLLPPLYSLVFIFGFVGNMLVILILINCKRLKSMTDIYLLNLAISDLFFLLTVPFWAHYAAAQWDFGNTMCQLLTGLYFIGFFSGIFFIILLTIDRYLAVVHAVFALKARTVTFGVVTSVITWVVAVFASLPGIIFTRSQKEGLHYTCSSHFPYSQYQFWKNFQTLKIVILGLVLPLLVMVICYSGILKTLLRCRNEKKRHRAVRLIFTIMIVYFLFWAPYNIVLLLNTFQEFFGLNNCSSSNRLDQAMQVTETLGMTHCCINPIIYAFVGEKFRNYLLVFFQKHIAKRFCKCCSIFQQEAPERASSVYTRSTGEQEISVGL

IC50 (CCL5 binding to heparin) [µM]	IC50 (CCR1 (Homo sapiens)) [µM]	tighter interaction than Molecule 1 in the CCR1 binding assay (CCR1 [6]) [fold]	competition of CCL3 binding to CCR1 (CCR1 [7])	competition of CCL3 binding to CCR5 (CCR5 [8])	effect on CCL5 binding to CCR5 (CCR5 [9])	Kd (CCL5; determined by protein NMR, pH 3.2, 30°C) [µM]	Compound	cell recruitment to the peritoneal cavity [1]	mononuclear cell recruitment into the knee cavity [2]	neutrophil recruitment into the knee cavity [2]	Anticoagulant activity (heparin-equivalent) ([3]; calibrated against heparin standard curve, samples at 1 mg/ml (MHxS 0.1 mg/ml)) [IU/mg]	anticoagulant potency reduced compared to heparin ([3]; relative to heparin) [fold]	reduction of paw thickness compared with dexamethasone ([4]; 10 mg/kg s.c. at −30 min and +8 h)	inhibition of paw thickness, dose-response ([4]; 0.1, 1 and 10 mg/kg at −30 min and +8 h post-challenge, data not shown)	inhibition of paw swelling ([4]; oligosaccharides 10 mg/kg s.c. at −30 min and +8 h, dexamethasone by oral gavage 30 min before challenge, paw thickness at 21 h) [%]	cell recruitment to the peritoneum [5]	selective binding to CCL5 in the NMR screen (CCL5; 206 compound library, 200 μM, HSQC chemical shift changes)
1.27 ± 0.67	–	–	–	–	–	–	persulfated MHx [MHxS]	enhanced recruitment, albeit moderately	statistically significant reduction	statistically significant reduction	11.87 ± 3.07	12	comparable effect	statistically significant inhibitions were shown only for the highest dose	39	–	–
–	2.5	3	–	–	–	–	O=C(CCCCCCCCCCNS(=O)(=O)c1ccc(O)c(C(=O)O)c1)Nc1cc(C(=O)O)c(O)c(S(=O)(=O)O)c1 [Molecule 3, 5-[(11-{[(3-carboxy-4hydroxyphenyl)sulfonyl]amino}undecanoyl)amino]-2-hydroxy-3-sulfobenzoic acid]	–	–	–	–	–	–	–	–	enhancement of cell recruitment; also recorded: no inhibition of recruitment, rather an enhancement at the highest dose	–
320	6.7	–	no competition	no competition	no effect	20	O=C(O)c1cc(S(=O)(=O)O)ccc1O [Molecule 1]	–	–	–	–	–	–	–	–	inhibited cell recruitment to the peritoneum in a dose dependent manner	confirmed to be selectively binding to CCL5

From paper PMC3472544, “Glycosaminoglycan analogs as a novel anti-inflammatory strategy” (Frontiers in Immunology, 2012)
